The text below walks through data of US9078442B2, “Herbicidally and fungicidally active 3-phenylisoxazoline-5-carboxamides and 3-phenylisoxazoline-5-thioamides” (BAYER INTELLECTUAL PROPERTY GMBH, priority 2011, dated 2015).

Structures are written as SMILES.

In one assay the test system is Peronospora parasitica. The assay is described as follows: In vivo test Peronospora parasitica (downy mildew on cabbage), protective. The conditions noted are these: application rate 500 g/ha, evaluation 5 days after infection. Here is the method: In vivo test Peronospora parasitica (downy mildew on cabbage) To prepare an appropriate active compound formulation, the active compound is mixed with acetone/Tween/DMSO and the mixture is diluted with water to the desired concentration. Cabbage plants are cultivated in 50/50 peat/pozzolan soil in small pots at 18-20° C. and sprayed at the cotyledon stage at the respective stated application rates to test for protective activity. Control plants were treated in the same manner, but using an aqueous solution without any active compounds. 24 hours after the spraying, the plants were sprayed with a spore suspension of Peronospora parasitica (50 000 spores/ml). The plants were placed in a cabin at 20° C. in a humid atmosphere for 5 days.

Assay [1] concerns Mycosphaerella graminicola. The assay is described as follows: In vivo test Mycosphaerella graminicola (wheat). As to conditions: Mycosphaerella graminicola on wheat, application rate 500 g/ha, evaluation 21-28 days after inoculation. How it is done:
Wheat plants (cultivar: (Scipion) are cultivated in 50/50 peat pozzolan substrate at 12° C. and sprayed at the 1-leaf stage with the active compound preparation as given in Example A. After 24 hours, the plants are sprayed with a spore suspension of Mycosphaerella graminicola (500 000 spores/ml).

The test system of a further assay is Botrytis cinerea. Nature of the assay: In vivo test Botrytis cinerea (gray mold on cucumbers). As to conditions: Botrytis cinerea on cucumber, evaluation 5-7 days after infection. Here is the method:
Cucumber plants (Vert petit de Paris) are cultivated in 50/50 peat pozzolan substrate at 20-25° C. and sprayed at the Z16 stage with the active compound preparation given in Example 1. After 24 hours, the upper sides of the leaves of the plants are sprayed with a spore suspension of Botrytis cinerea (150 000 spores/ml). The spores of a 15-day old culture are collected and suspended in a nutrient solution consisting of • 20 g/l of gelatin; • 50 g/l of D-fructose; • 2 g/l of NH4NO3; • 1 g/L of KH2PO4. The inoculated cucumber plants are placed at 15-11° C. (day/night) and at 80% relative atmospheric humidity for 5-7 days.

For `Cc1cc(Cl)cc(C2=NOC(C)(C(=O)NC(C)C)C2)c1` (stereo not drawn) [Example 6.192], the figures for the “Activity [%] (efficacy)” value (in the assay on Peronospora parasitica; in assay [1]) were 96% and 97%, respectively.

For `CCn1cc(CNC(=O)C2(C)CC(c3cc(Cl)cc(Cl)c3)=NO2)c(Cl)n1` (stereo not drawn) [Example 1.339], the “Activity [%] (efficacy)” value in the assay on Peronospora parasitica came out at 100%; in assay [1], 85%.

On to `CCCn1cc(CNC(=O)C2(CC)CC(c3cc(Cl)cc(Cl)c3)=NO2)c(C)n1` (stereo not drawn) [Example 2.257], for which the entries for the “Activity [%] (efficacy)” value (with Peronospora parasitica; in assay [1]) were 99% and 79%, respectively.

Take `CCn1cc(CNC(=O)C2(C)CC(c3cc(C(F)(F)F)cc(C(F)(F)F)c3)=NO2)c(C)n1` (stereo not drawn) [Example 1.224]: the “Activity [%] (efficacy)” value in the assay with Peronospora parasitica is on record as 99%; in assay [1] it was 95%.

With `CCOC(=O)CCNC(=O)C1(C)CC(c2cc(Cl)cc(Cl)c2)=NO1` (stereo not drawn) [Example 6.566], in assay [1], the “Activity [%] (efficacy)” value is 98%.

For `COc1cc(Cl)cc(C2=NOC(C)(C(=O)NC(C)C)C2)c1` (stereo not drawn) [Example 6.191], the “Activity [%] (efficacy)” value in the assay on Botrytis cinerea (application rate 1200 g/ha) worked out at 100%.

With `CCn1cc(CNC(=O)C2(CC)CC(c3cc(Cl)cc(Cl)c3)=NO2)c(C)n1` (stereo not drawn) [Example 2.163], the results for the “Activity [%] (efficacy)” value (in the assay on Peronospora parasitica; in assay [1]) were 100% and 96%, respectively.

As to `COC(=O)Cc1cccc(NC(=O)C2(C)CC(c3cc(Cl)cc(Cl)c3)=NO2)c1` (stereo not drawn) [Example 1.035], the “Activity [%] (efficacy)” value with Botrytis cinerea (application rate 500 g/ha) is 89%; in assay [1] it was 91%.

On to `CCn1cc(CNC(=O)C2(C)CC(c3cc(C)cc(Cl)c3)=NO2)c(C)n1` (stereo not drawn) [Example 1.181], for which the results for the “Activity [%] (efficacy)” value (in the assay with Peronospora parasitica; in the assay with Botrytis cinerea (application rate 500 g/ha); in assay [1]) were 100%, 70% and 85%, respectively.

As to `Cc1cc(CNC(=O)C2(C)CC(c3cc(Cl)cc(Cl)c3)=NO2)no1` (stereo not drawn) [Example 1.421], the “Activity [%] (efficacy)” value in assay [1] worked out at 87%.

Take `CC1(C(=O)Nc2cccc(CC(=O)O)c2)CC(c2cc(Cl)cc(Cl)c2)=NO1` (stereo not drawn) [Example 1.036]: in assay [1], the “Activity [%] (efficacy)” value turned out to be 73%.

`Cc1cc(Cl)cc(C2=NOC(C)(C(=O)NCC(F)(F)F)C2)c1` (stereo not drawn) [Example 6.386]: the “Activity [%] (efficacy)” value in assay [1] was 100%.

As for `CC(C)n1cc(CNC(=O)C2(C)CC(c3cc(F)cc(F)c3)=NO2)c(Cl)n1` (stereo not drawn) [Example 1.340], the “Activity [%] (efficacy)” value in the assay with Peronospora parasitica came to 97%; in assay [1] it was 88%.

Consider `Cc1c(CNC(=O)C2(C)CC(c3cc(Cl)cc(Cl)c3)=NO2)cnn1C` (stereo not drawn) [Example 1.138], for which the results for the “Activity [%] (efficacy)” value (with Peronospora parasitica; in assay [1]) were 98% and 75%, respectively.

As for `CC1(C(=O)NCC2CCCO2)CC(c2cc(Cl)cc(Cl)c2)=NO1` (mixture of isomers) [Example 6.470], the “Activity [%] (efficacy)” value is 71% with Peronospora parasitica and 100% in assay [1].

Consider `COC(=O)c1ccc(NC(=O)C2(C)CC(c3cc(Cl)cc(Cl)c3)=NO2)cc1` (stereo not drawn) [Example 1.060], for which the “Activity [%] (efficacy)” value in the assay on Botrytis cinerea (application rate 500 g/ha) was 100%.

For the compound `CC(C)(C)OC(=O)CCNC(=O)C1(C)CC(c2cc(Cl)cc(Cl)c2)=NO1` (stereo not drawn) [Example 6.656], the “Activity [%] (efficacy)” value with Peronospora parasitica is 92%; in assay [1], 98%.

As for `CC1(C(=O)NCc2ncccn2)CC(c2cc(Cl)cc(Cl)c2)=NO1` (stereo not drawn) [Example 1.459], the “Activity [%] (efficacy)” value in assay [1] was 100%.

For the compound `CC(C)n1cc(CNC(=O)C2(C)CC(c3cc(Cl)cc(Cl)c3)=NO2)c(Cl)n1` (stereo not drawn) [Example 1.343], the “Activity [%] (efficacy)” value in the assay with Peronospora parasitica was found to be 99%; in assay [1], 92%.

As for `CC1(C(=O)NCCCn2cccn2)CC(c2cc(Cl)cc(Cl)c2)=NO1` (stereo not drawn) [Example 1.903], the entries for the “Activity [%] (efficacy)” value (in the assay on Peronospora parasitica; in assay [1]) were 85% and 97%, respectively.

Take `CCNC(=O)C1(C)CC(c2cc(C)cc(Cl)c2)=NO1` (stereo not drawn) [Example 6.412]: the “Activity [%] (efficacy)” value in assay [1] worked out at 100%.

As to `CCOC(=O)C(C)CNC(=O)C1(C)CC(c2cc(Cl)cc(Cl)c2)=NO1` (stereo not drawn) [Example 6.480], the “Activity [%] (efficacy)” value in assay [1] is 88%.
